From BindingDB's records for doi:10.1016/j.bmcl.2004.01.047 (University of Huddersfield, 2004)

Experiment: Binding affinity against metallo-beta-lactamase bacillus cereus(BCII)

Work on CC1CS[C@H](c2nc(O)c(-c3ccccc3)[nH]c2=S)NC1C(=O)O (stereo partly drawn) [(R)-5-Methyl-2-(6-oxo-5-phenyl-3-thioxo-piperazin-2-yl)-3,6-dihydro-2H-[1,3]thiazine-4-carboxylic acid anion] yielded a Ki of 29 µM.
